# Data published in PubChem BioAssay (NCI).
#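 Dose response: 5 concentrations. Exposure: 48 h. Format: 96-well plates. Endpoint: linear interpolation; highest concentration if not reached. Abbreviation: GI50, concentration required for 50% inhibition of growth. At the TGI there is no net growth.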
# Tests used:
# Assay in all cases: NCI anticancer screen, dose series, 48 h
# [1] = system: SF-268 CNS
# [2] = system: T-47D breast
# [3] = system: SR leukemia
# [4] = system: MOLT-4 leukemia
# [5] = system: SNB-75 CNS
# [6] = system: NCI-H522 lung
# [7] = system: MDA-MB-231 breast
# [8] = system: ACHN renal
# [9] = system: CAKI-1 renal
# [10] = system: MALME-3M melanoma
# [11] = system: 786-0 renal
# [12] = system: HOP-92 NSCLC
SMILES,GI50 [1] [µM],TGI [1] [µM],TGI [2] [µM],GI50 [3] [µM],TGI [3] [µM],GI50 [4] [µM],TGI [4] [µM],TGI [5] [µM],GI50 [6] [µM],TGI [6] [µM],TGI [7] [µM],GI50 [8] [µM],TGI [8] [µM],GI50 [9] [µM],TGI [9] [µM],GI50 [10] [µM],TGI [10] [µM],TGI [11] [µM],TGI [12] [µM]
FC1(F)ON2CCc3ccccc3C2[C@H]1c1ccccc1 (some centres undefined),> 100,> 100,> 100,> 100,> 100,> 100,> 100,70.8,> 100,> 100,> 100,> 100,> 100,> 100,> 100,14.5,88.8,96.7,
CC(C)(C)C1=C(Br)C(F)(C(C)(C)C)OP1(=O)c1ccccc1 (centres undefined),,36.2,42.1,,31.4,,,30.9,,30.8,,,30,,25.8,,32,29.6,34.2
CN1CCC2(CC1)SSC1(CCN(C)CC1)S2,,,,,> 100,,> 100,> 100,,,> 100,,> 100,,,,,> 100,> 100
O=C1C(Cl)=C(Cl)C(=O)C(CCNc2nccs2)=C1Cl,,> 100,> 100,,> 100,,> 100,69.5,,51.3,,,63.2,,37.1,,46.6,45,58.2
c1ccc2c3c(ccc2c1)-c1[nH]ncc1CCO3,,98.8,,,,,77.5,> 74.9,,> 81.5,,,,,> 64,,> 100,,57.7
CCCn1cc2c(=O)[nH]c(SC)nc2n1,,> 100,,,> 100,,> 100,> 100,,,,,> 100,,> 100,,> 100,,> 100
CC1CCN(C(C)C)P(=S)(Cc2ccccc2)O1 (centres undefined),,> 100,56.8,,> 100,,> 100,,,,> 100,,> 100,,> 100,,> 100,> 100,
Cc1ccc2c(c1)nc1n2C(c2c(F)cccc2F)SC1 (centres undefined),,> 100,> 100,,87.9,,87.4,> 100,,> 100,> 100,,> 100,,> 100,,93.3,> 100,
CO/C=C(/C(=O)OC)[C@@H]1C[C@@H]1c1ccc2ccccc2c1,,99.2,78.5,,44.7,,65.4,,,28.5,> 100,,78.7,,66,,50.6,> 100,72.9
COc1ccc(C(=O)/C=C/c2ccc(OCCCCCCCCCCOc3ccc(/C=C/C(=O)c4ccc(OC)cc4)cc3)cc2)cc1,,> 100,> 100,,> 100,,> 100,> 100,,,> 100,,> 100,,> 100,,,> 100,
O=c1onc2n1-c1ccc(Cl)cc1C(=S)N1CSCC21 (centres undefined),,69.7,> 100,,48.1,,> 100,91.9,,62.9,41.8,,> 100,,> 100,,> 100,> 100,
Fc1cc(C2=Nn3c(COc4ccccc4Cl)nnc3S/C2=C\c2ccc(Cl)cc2)c(Cl)cc1Cl,,9.06,> 100,,> 100,,> 100,,,22.6,> 100,,39.1,,31.5,,,26.5,20.2
COC(=O)c1ccc(NCc2cc(OC)ccc2OC)cc1,,> 100,,,> 100,,> 100,> 100,,> 100,> 100,,> 100,,> 100,,> 100,> 100,> 100
COC(=O)C(Cc1c[nH]c2ccccc12)NC(=O)C(Cc1cnc[nH]1)NC(=O)C1CCC(=O)N1C(=O)OCc1ccccc1 (centres undefined),,,> 100,,> 100,,> 100,> 100,,,,,> 100,,,,> 100,> 100,> 100
COC(=O)C1=CO[C@@H](C)[C@@H]2Cn3ccc4c5ccccc5nc-4c3C[C@H]12,,> 100,,,,,> 100,> 100,,> 100,,,> 100,,,,> 100,> 100,> 100
Cc1nc(OCc2ccccc2)c2ncn(CCO)c2n1,,> 100,,,> 100,,> 100,,,> 100,> 100,,> 100,,> 100,,,> 100,> 100
O=c1[nH]c(NCc2cccnc2)nc2nc[nH]c12,,> 100,> 100,,,,> 100,> 100,,> 100,> 100,,> 100,,> 100,,> 100,> 100,> 100
CC1C(C)(C)C23CC12C1(OCCO1)C3Br (centres undefined),,> 100,,,> 100,,> 100,> 100,,,> 100,,> 100,,> 100,,> 100,> 100,
S=C(NCc1ccccc1)Nc1sc(=NCc2ccccc2)nc2sc3c(c12)CCN(N1CCc2c(sc4nc(=NCc5ccccc5)sc(NC(=S)NCc5ccccc5)c24)C1)C3,,> 100,> 61.3,,,,> 96.1,> 64.9,,> 100,> 44,,> 96.4,,> 75.9,,> 100,> 40.9,> 100
Cc1nc2c(c(N3CCN(C)CC3)n1)Cc1ccccc1-2,,> 100,> 100,,,,,> 100,,56.4,> 100,,> 100,,49.4,,> 100,> 100,> 100
CCOC(=O)CNC(=O)C(CCC(=O)N(C)O)NC(=O)CCC(N)C(=O)O (centres undefined),,> 100,> 100,,,,> 100,> 100,,> 100,> 100,,> 100,,> 100,,,> 100,> 100
